According to patent US10617680B2 (CELGENE QUANTICEL RESEARCH, INC., priority 2017, dated 2020):
Where two headings read alike, the source gives them in different places.

Molecular target: CBP (Homo sapiens (Human), UniProt Q92793)
Assay: In vitro CBP inhibition (AlphaScreen, biotinylated H4-tetraacetyl peptide)
Assay type: binding
How it was run: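 His-tagged CBP expressed in E. coli (50 nM final) incubated with biotinylated H4K5/8/12/16(Ac) peptide (20 nM final) in 50 mM HEPES pH 7.3, 10 mM NaCl, 0.25 mM TCEP, 0.1% BSA, 0.005% Brij-35, 0.4% DMSO, 20 min at room temp.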

[1] = AlphaScreen, Table 29, read-out: CBP IC50

CBP, sequence (Q92793 1081-1197): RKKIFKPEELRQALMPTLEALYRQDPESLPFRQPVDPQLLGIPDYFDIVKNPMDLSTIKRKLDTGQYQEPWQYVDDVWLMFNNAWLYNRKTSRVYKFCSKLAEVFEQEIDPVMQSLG

| Compound | IC50 [1] [nM] | further results |
| --- | --- | --- |
| COc1ccc(-c2cc(=O)n(C)cc2-c2cnn(-c3ccccc3C#N)c2)cn1 [Example 238, 2-(4-(6-methoxy-1′-methyl-6′-oxo-1′,6′-dihydro-[3,4′-bipyridin]-3′-yl)-1H-pyrazol-1-yl)benzonitrile] | < 500 |  |
| Cn1cc(-c2cnn(Cc3ccccc3)c2)c2ccccc2c1=O [Example 8, 4-(1-benzyl-1H-pyrazol-4-yl)-2-methyliso-quinolin-1(2H)-one] | < 500 |  |
| CCOc1cc(=O)n(C)cc1-c1cn(Cc2ccccc2)nc1[N+](=O)[O-] [Example 185, 5-(1-benzyl-3-nitro-1H-pyrazol-4-yl)-4-ethoxy-1-methylpyridin-2(1H)-one] | < 500 |  |
| Cc1cc(-c2cc(=O)n(C)cc2-c2cnn(-c3ccccc3C#N)c2)cn(C)c1=O [Example 239, 2-(4-(1,1′,5-trimethyl-6,6′-dioxo-1,1′,6,6′-tetrahydro-[3,4′-bipyridin]-3′-yl)-1H-pyrazol-1-yl)benzonitrile] | < 500 |  |
| Cn1cc(-c2cnn(-c3cccc(F)c3C#N)c2)c(-c2ccc(C(F)(F)F)nc2)cc1=O [Example 368, 2-fluoro-6-(4-(1′-methyl-6′-oxo-6-(trifluoromethyl)-1′,6′-dihydro-[3,4′-bipyridin]-3′-yl)-1H-pyrazol-1-yl)benzonitrile] | < 500 |  |
| CCOc1cc(=O)n(C)cc1-c1cnn(-c2cc(OC)ccc2C#N)c1 [Example 182, 2-[4-(4-Ethoxy-1-methyl-6-oxo-1,6-dihydro-pyridin-3-yl)-pyrazol-1-yl]-4-methoxy-benzonitrile] | < 500 |  |
| CC(C)Oc1cc(=O)n(C)cc1-c1cnn([C@@H](C)c2ccccc2)c1 [Example 46, (S)-4-isopropoxy-1-methyl-5-(1-(1-phenylethyl)-1H-pyrazol-4-yl) pyridin-2(1H)-one] | < 500 |  |
| CNc1cc(=O)n(C)cc1-c1cnn(C(C)c2ccccc2)c1 (centres unmarked) [Example 42, 1-methyl-4-(methyl-amino)-5-(1-(1-phenylethyl)-1H-pyrazol-1-yl) pyridin-2(1H)-one] | < 500 |  |
| CC(c1ccccc1)n1cc(-c2cn(C)c(=O)cc2OC2CCCCC2)cn1 (centres unmarked) [Example 52, 4-(cyclohexyloxy)-1-methyl-5-(1-(1-phenylethyl)-1H-pyrazol-4-yl) pyridin-2(1H)-one] | < 500 |  |
| Cn1cc(-c2cn(C)c(=O)cc2-n2ccc(C(=O)O)c2)cn1 [Example 84, 1-(1-methyl-5-(1-methyl-1H-pyrazol-4-yl)-2-oxo-1,2-dihydro-pyridin-4-yl)-1H-pyrrole-3-carboxylic acid] | < 500 |  |
| CN(C)CCCOc1ccc(-c2cc(=O)n(C)cc2-c2cnn(-c3cccc(C4CC4)c3C#N)c2)cn1 [Example 382, 2-cyclopropyl-6-(4-(6-(3-(dimethylamino)propoxy)-1′-methyl-6′-oxo-1′,6′-dihydro-[3,4′-bipyridin]-3′-yl)-1H-pyrazol-1-yl)benzonitrile] | < 500 |  |
| Cn1cc(-c2cnn(Cc3ccccc3)c2)c(-c2cnn(CC(N)=O)c2)cc1=O [Example 158, 2-(4-(5-(1-benzyl-1H-pyrazol-4-yl)-1-methyl-2-oxo-1,2-dihydro-pyridin-4-yl)-1H-pyrazol-1-yl)acetamide] | < 500 |  |
| COc1ccc(-c2cc(=O)n(C)cc2-c2cnn(-c3ccccc3-c3nnn[nH]3)c2)cc1 [Example 298, 4-(4-Methoxy-phenyl)-1-methyl-5-{1-[2-(1H-tetrazol-5-yl)-phenyl]-1H-pyrazol-4-yl}-1H-pyridin-2-one] | < 500 |  |
| CC(C)Nc1ncc(-c2cc(=O)n(C)cc2-c2cnn(-c3cccc(Cl)c3C#N)c2)cn1 [Example 331, 2-chloro-6-(4-(4-(2-(isopropylamino)pyrimidin-5-yl)-1-methyl-6-oxo-1,6-dihydropyridin-3-yl)-1H-pyrazol-1-yl)benzonitrile] | < 500 |  |
| Cc1ccc(-c2cc(=O)n(C)cc2-c2cnn(-c3ccccc3C#N)c2)cn1 [Example 377, 2-(4-(1′,6-dimethyl-6′-oxo-1′,6′-dihydro-[3,4′-bipyridin]-3′-yl)-1H-pyrazol-1-yl)benzonitrile] | < 500 |  |
| Cn1cc(-c2cn[nH]c2)c(-c2ccccc2)cc1=O [Example 133, 1-methyl-4-phenyl-5-(1H-pyrazol-4-yl)pyridin-2(1H)-one] | < 500 |  |
| CCOc1cc(=O)n(C)cc1-c1cnn(Cc2ccc(C)cc2)c1 [Example 65, 4-ethoxy-1-methyl-5-(1-(4-methylbenzyl)-1H-pyrazol-4-yl) pyridin-2(1H)-one] | < 500 |  |
| CC(C)COc1cc(=O)n(C)cc1-c1cnn(C(C)c2ccccc2)c1 (centres unmarked) [Example 48, 4-isobutoxy-1-methyl-5-(1-(1-phenylethyl)-1H-pyrazol-4-yl) pyridin-2(1H)-one] | < 500 |  |
| Cn1cc(-c2cnn(CC3CC3)c2)c(-c2ccccc2)cc1=O [Example 146, 5-(1-(cyclopropyl-methyl)-1H-pyrazol-4-yl)-1-methyl-4-phenyl-pyridin-2(1H)-one] | < 500 |  |

| Compound | IC50 [1] [nM] | further results |
| --- | --- | --- |
| Cn1cc(-c2cnn(Cc3ccccc3C#N)c2)ccc1=O [Example 3, 2-((4-(1-methyl-6-oxo-1,6-dihydropyridin-3-yl)-1H-pyrazol-1-yl)methyl)benzonitrile] | 500 to 5000 |  |
| CC(=O)N[C@H]1CCN(c2cc(=O)n(C)cc2-c2cnn(Cc3ccccc3)c2)C1 [Example 73, (S)-N-(1-(5-(1-benzyl-1H-pyrazol-4-yl)-1-methyl-2-oxo-1,2-dihydropyridin-4-yl)pyrrolidin-3-yl) acetamide] | 500 to 5000 |  |
| Cn1ccc(-c2cc(=O)n(C)cc2-c2cnn(-c3ccccc3Cl)c2)cc1=O [Example 314, 5-(1-(2-chlorophenyl)-1H-pyrazol-4-yl)-1,1′-dimethyl-[4,4′-bipyridine]-2,2′(1H,1′H)-dione] | < 500 |  |
| COCCNc1ncc(-c2cc(=O)n(C)cc2-c2cnn(-c3cccc(Cl)c3C#N)c2)cn1 [Example 326, 2-chloro-6-(4-(4-(2-((2-methoxyethyl)amino)pyrimidin-5-yl)-1-methyl-6-oxo-1,6-dihydropyridin-3-yl)-1H-pyrazol-1-yl)benzonitrile] | < 500 |  |
| Cn1cc(-c2cn(C)c(=O)cc2-n2cccc2)cn1 [Example 83, 1-methyl-5-(1-methyl-1H-pyrazol-4-yl)-4-(1H-prrol-1-yl) pyridin-2(1H)-one] | < 500 |  |
| Cc1c(-c2cnn(C(C)c3ccccc3)c2)cn(C)c(=O)c1C (centres unmarked) [Example 30, 1,3,4-trimethyl-5-(1-(1-phenylethyl)-1H-pyrazol-4-yl)pyridin-2(1H)-one] | < 500 |  |
| CC(C)Oc1cc(=O)n(C)cc1-c1cnn(C(C)c2ccccc2)c1 (centres unmarked) [Example 36, 4-isopropoxy-1-methyl-5-(1-(1-phenylethyl)-1H-pyrazol-4-yl)pyridin-2(1H)-one] | < 500 |  |
| Cc1sc2c(c1C)C(c1ccc(Cl)cc1)=N[C@@H](CC(=O)OC(C)(C)C)c1nnc(C)n1-2 [JQ-1, tert-butyl (S)-2-(4-(4-chloro-phenyl)-2,3,9-trimethyl-6H-thieno[3,2-f][1,2,4]triazolo[4,3-a][1,4]diazepin-6-yl)acetate, reference compound] |  | IC50 (Table 30, read-out: CRREBBP IC50): > 5000 nM |
| COc1cccc(-c2cc(=O)n(C)cc2-c2cnn(-c3ccccc3C#N)c2)c1 [Example 241, 2-{4-[4-(3-Methoxy-phenyl)-1-methyl-6-oxo-1,6-dihydro-pyridin-3-yl]-pyrazol-1-yl}-benzonitrile] | < 500 |  |
| COc1ccc(C#N)cc1-n1cc(-c2cn(C)c(=O)cc2-c2ccn(C)c(=O)c2)cn1 [Example 305, 3-(4-(1,1′-dimethyl-2′,6-dioxo-1,1′,2′,6-tetrahydro-[4,4′-bipyridin]-3-yl)-1H-pyrazol-1-yl)-4-methoxybenzonitrile] | < 500 |  |
| CCOc1cc(=O)n(C)cc1-c1cnn(-c2ccccc2)c1 [Example 96, 4-ethoxy-1-methyl-5-(1-phenyl-1H-pyrazol-4-yl) pyridin-2(1H)-one] | < 500 |  |
| Cn1cc(-c2cnn(Cc3ccccc3)c2)c(N2CC[C@@H](NS(=O)(=O)C(F)(F)F)C2)cc1=O [Example 173, (R)-N-(1-(5-(1-benzyl-1H-pyrazol-4-yl)-1-methyl-2-oxo-1,2-dihydropyridin-4-yl)pyrrolidin-3-yl)-1,1,1-trifluoromethanesulfonamide] | 500 to 5000 |  |
| Cn1cc(-c2cnn(-c3cccc(F)c3C#N)c2)c(-c2cnc(N3CCCC3)nc2)cc1=O [Example 336, 2-fluoro-6-[4-[1-methyl-6-oxo-4-(2-pyrrolidin-1-ylpyrimidin-5-yl)-3-pyridyl]pyrazol-1-yl]benzonitrile] | < 500 |  |
| CC(C)NC(=O)c1ccn(-c2cc(=O)n(C)cc2-c2cnn(Cc3ccccc3)c2)c1 [Example 82, 1-(5-(1-benzyl-1H-pyrazol-4-yl)-1-methyl-2-oxo-1,2-dihydropyridin-4-yl)-N-isopropyl-1H-pyrrole-3-carboxamide] | < 500 |  |
| Cn1cc(-c2cc(=O)n(C)cc2-c2cnn(-c3ccccc3C#N)c2)ccc1=O [Example 209, 2-[4-(1,1′-Dimethyl-6,6′-dioxo-1,6,1′,6′-tetrahydro-[3,4′]bipyridinyl-3′-yl)-pyrazol-1-yl]-benzonitrile] | < 500 |  |
| Cn1cc(-c2cnn(-c3cccc(Cl)c3C#N)c2)c(-c2ccc(OCC3CC3)nc2)cc1=O [Example 357, 2-chloro-6-[4-[4-[6-(cyclopropylmethoxy)-3-pyridyl]-1-methyl-6-oxo-3-pyridyl]pyrazol-1-yl]benzonitrile] | < 500 |  |
| CC(c1ccccc1)n1cc(-c2cn(C)c(=O)cc2-c2ccn(C)c(=O)c2)cn1 (centres unmarked) [Example 310, 1,1′-dimethyl-5-(1-(1-phenylethyl)-1H-pyrazol-4-yl)-[4,4′-bipyridine]-2,2′(1H,1′H)-dione] | < 500 |  |
| CCNc1ncc(-c2cc(=O)n(C)cc2-c2cnn(-c3cccc(F)c3C#N)c2)cn1 [Example 333, 2-[4-[4-[2-(ethylamino)pyrimidin-5-yl]-1-methyl-6-oxo-3-pyridyl]pyrazol-1-yl]-6-fluoro-benzonitrile] | < 500 |  |
| Cn1cc(-c2cnn(CC3CC3)c2)c(-c2ccc(C#N)cc2)cc1=O [Example 156, 4-[5-(1-cyclopropyl-methyl-1H-pyrazol-4-yl)-1-methyl-2-oxo-1,2-dihydro-pyridin-4-yl]-benzonitrile] |  | IC50: 500 to 5000 nM |
